Reference: publication PMC11671526, “β-caryophyllene sensitizes hepatocellular carcinoma cells to chemotherapeutics and inhibits cell malignancy through targeting MAPK signaling pathway” (Frontiers in Pharmacology, 2024)

System: HepG2 cells
Experiment: RNA-seq transcriptome analysis of differentially expressed genes
Assay type: cell-based, human
Conditions: BCP vs control HepG2
Description: The quality and concentration of RNA were examined by MOPS RNA electrophoresis and Eppendorf BioSpectrometer. The transcriptome analysis was performed by BGI-Wuhan China. The RNA-seq dataset of this study is accessible in the Gene Expression Omnibus (GEO) with an access number of GSE276099. The sequence library for each sample was prepared using the BGISEQ-500 platform with a 50-bp single-end (SE50) format. […]2.2.1) was used to align the clean reads to the reference genome and alignment of the clean reads to the reference genes was carried out using Bowtie2 (v2.4.5) ([Langmead and Salzberg, 2012]; [Kim et al., 2015]). Gene expression levels were calculated by RSEM (v1.3.1) ([Li and Dewey, 2011]). Analysis of differential gene expression was performed using edgeR in the Bioconductor software package ([Robinson et al., 2010]). Using a standard protocol, the RNA samples were also examined by reverse transcription and quantitative polymerase chain reaction (RT-qPCR). In brief, for reverse transcription, total RNA (1 μg) and gDNA wiper Mix were incubated at 42°C for 2 min. The samples were immediately incubated with a master mix containing 10 pmol/μL of poly (dT) primers at 37°C for 15 min and 85°C for 5 s. To detect the expression of specific genes by qPCR analysis, gene-specific primers (shown in Supplementary Table S1) were mixed with the ChamQ Universal SYBER qPCR Master Mix and the reaction was conducted using the Roche Lightcycler 480. The GAPDH value was used to normalize the results of each gene. The RNA-seq data of BCP-treated HepG2 cells were screened for DEGs. Gene symbols were turned into Enterz ID using the org.Hs.eg.db Bio-conductor R package. The cluster profiler (v4.6.2) package was used to perform the Kyoto Encyclopedia of Genes and Genomes (KEGG) and Gene Ontology (GO) enrichment analyses ([Wu et al., 2021]). Following the Transcript per million (TPM) data of the dataset, the line chart, and heatmap were plotted using ggplot2 and pheatmap R packages, respectively.

In the case of `C=C1CC/C=C(\C)CC[C@@H]2[C@@H]1CC2(C)C` [BCP, β-caryophyllene], the “change RAPGEF3” value (gene RAPGEF3, DEG direction) is reported as “Down”, the “logFC RARRES2” value (gene RARRES2, RNA-seq) is reported as -0.9419 and the “change RARRES2” value (gene RARRES2, DEG direction) is reported as “Down”. For the same compound, the “logFC RASSF5” value (gene RASSF5, RNA-seq) was -1.261, the “change RASSF5” value (gene RASSF5, DEG direction) was “Down” and the “logFC RETREG1” value (gene RETREG1, RNA-seq) was 0.6811. For the same compound, the “change RETREG1” value (gene RETREG1, DEG direction) was “Up”, the “logFC RHOB” value (gene RHOB, RNA-seq) was 0.8378 and the “change RHOB” value (gene RHOB, DEG direction) was “Up”. For the same compound, the “logFC RHOBTB1” value (gene RHOBTB1, RNA-seq) was 0.6316, the “change RHOBTB1” value (gene RHOBTB1, DEG direction) was “Up” and the “logFC RILPL2” value (gene RILPL2, RNA-seq) was -0.6633. The “change RILPL2” value (gene RILPL2, DEG direction) was “Down”, the “logFC RNASE4” value (gene RNASE4, RNA-seq) was -1.067 and the “change RNASE4” value (gene RNASE4, DEG direction) was “Down”. The “logFC RNF182” value (gene RNF182, RNA-seq) was 0.812, the “change RNF182” value (gene RNF182, DEG direction) was “Up” and the “logFC RNF208” value (gene RNF208, RNA-seq) was -0.8526. The “change RNF208” value (gene RNF208, DEG direction) was “Down”, the “logFC RSPO3” value (gene RSPO3, RNA-seq) was 1.091 and the “change RSPO3” value (gene RSPO3, DEG direction) was “Up”. For the same compound, the “logFC RUNDC3B” value (gene RUNDC3B, RNA-seq) was -1.157, the “change RUNDC3B” value (gene RUNDC3B, DEG direction) was “Down” and the “logFC S100A3” value (gene S100A3, RNA-seq) was -0.7971. The “change S100A3” value (gene S100A3, DEG direction) was “Down”, the “logFC S100A4” value (gene S100A4, RNA-seq) was -0.5965 and the “change S100A4” value (gene S100A4, DEG direction) was “Down”. The “logFC SCIN” value (gene SCIN, RNA-seq) was -0.6372, the “change SCIN” value (gene SCIN, DEG direction) was “Down” and the “logFC SDCCAG8” value (gene SDCCAG8, RNA-seq) was 0.7756. The “change SDCCAG8” value (gene SDCCAG8, DEG direction) was “Up”, the “logFC SEL1L” value (gene SEL1L, RNA-seq) was 0.5873 and the “change SEL1L” value (gene SEL1L, DEG direction) was “Up”. For the same compound, the “logFC SELENOP” value (gene SELENOP, RNA-seq) was 0.7184, the “change SELENOP” value (gene SELENOP, DEG direction) was “Up” and the “logFC SEMA5A” value (gene SEMA5A, RNA-seq) was 1.3518. For the same compound, the “change SEMA5A” value (gene SEMA5A, DEG direction) was “Up”, the “logFC SIK2” value (gene SIK2, RNA-seq) was 0.6807 and the “change SIK2” value (gene SIK2, DEG direction) was “Up”. The “logFC SLC5A3” value (gene SLC5A3, RNA-seq) was -0.7077, the “change SLC5A3” value (gene SLC5A3, DEG direction) was “Down” and the “logFC SLC9B2” value (gene SLC9B2, RNA-seq) was -0.6372. The “change SLC9B2” value (gene SLC9B2, DEG direction) was “Down”, the “logFC SLC16A6” value (gene SLC16A6, RNA-seq) was 1.033 and the “change SLC16A6” value (gene SLC16A6, DEG direction) was “Up”. The “logFC SLC52A3” value (gene SLC52A3, RNA-seq) was -2.872, the “change SLC52A3” value (gene SLC52A3, DEG direction) was “Down” and the “logFC SLCO4A1” value (gene SLCO4A1, RNA-seq) was -0.7226. For the same compound, the “change SLCO4A1” value (gene SLCO4A1, DEG direction) was “Down”, the “logFC SLFN5” value (gene SLFN5, RNA-seq) was 0.8058 and the “change SLFN5” value (gene SLFN5, DEG direction) was “Up”. For the same compound, the “logFC SLPI” value (gene SLPI, RNA-seq) was -0.5978, the “change SLPI” value (gene SLPI, DEG direction) was “Down” and the “logFC SNED1” value (gene SNED1, RNA-seq) was 0.7039. The “change SNED1” value (gene SNED1, DEG direction) was “Up”, the “logFC SNTB1” value (gene SNTB1, RNA-seq) was 0.7574 and the “change SNTB1” value (gene SNTB1, DEG direction) was “Up”. The “logFC SORBS2” value (gene SORBS2, RNA-seq) was 0.9049, the “change SORBS2” value (gene SORBS2, DEG direction) was “Up” and the “logFC SPAG16” value (gene SPAG16, RNA-seq) was 0.7042. For the same compound, the “change SPAG16” value (gene SPAG16, DEG direction) was “Up”, the “logFC SPRY4” value (gene SPRY4, RNA-seq) was -0.9938 and the “change SPRY4” value (gene SPRY4, DEG direction) was “Down”. For the same compound, the “logFC ST6GALNAC6” value (gene ST6GALNAC6, RNA-seq) was -0.6732, the “change ST6GALNAC6” value (gene ST6GALNAC6, DEG direction) was “Down” and the “logFC STARD10” value (gene STARD10, RNA-seq) was -0.7468. For the same compound, the “change STARD10” value (gene STARD10, DEG direction) was “Down”, the “logFC SULT1A4” value (gene SULT1A4, RNA-seq) was -0.8677 and the “change SULT1A4” value (gene SULT1A4, DEG direction) was “Down”. The “logFC SV2B” value (gene SV2B, RNA-seq) was 1.269, the “change SV2B” value (gene SV2B, DEG direction) was “Up” and the “logFC SYN3” value (gene SYN3, RNA-seq) was -1.293. For the same compound, the “change SYN3” value (gene SYN3, DEG direction) was “Down”, the “logFC TAGLN” value (gene TAGLN, RNA-seq) was 1.297 and the “change TAGLN” value (gene TAGLN, DEG direction) was “Up”. The “logFC TBC1D2” value (gene TBC1D2, RNA-seq) was 0.6507, the “change TBC1D2” value (gene TBC1D2, DEG direction) was “Up” and the “logFC TBC1D17” value (gene TBC1D17, RNA-seq) was -0.5911. The “change TBC1D17” value (gene TBC1D17, DEG direction) was “Down”, the “logFC TCIM” value (gene TCIM, RNA-seq) was 0.8634 and the “change TCIM” value (gene TCIM, DEG direction) was “Up”. The “logFC TCN1” value (gene TCN1, RNA-seq) was -1.416, the “change TCN1” value (gene TCN1, DEG direction) was “Down” and the “logFC TEK” value (gene TEK, RNA-seq) was -1.317. The “change TEK” value (gene TEK, DEG direction) was “Down”, the “logFC TGFB3” value (gene TGFB3, RNA-seq) was -0.7747 and the “change TGFB3” value (gene TGFB3, DEG direction) was “Down”. For the same compound, the “logFC TIMP3” value (gene TIMP3, RNA-seq) was -1.01, the “change TIMP3” value (gene TIMP3, DEG direction) was “Down” and the “logFC TLR4” value (gene TLR4, RNA-seq) was -0.8506. The “change TLR4” value (gene TLR4, DEG direction) was “Down”, the “logFC TM4SF1” value (gene TM4SF1, RNA-seq) was 0.7666 and the “change TM4SF1” value (gene TM4SF1, DEG direction) was “Up”. The “logFC TMEM120B” value (gene TMEM120B, RNA-seq) was -0.6536, the “change TMEM120B” value (gene TMEM120B, DEG direction) was “Down” and the “logFC TNFSF15” value (gene TNFSF15, RNA-seq) was -1.596. For the same compound, the “change TNFSF15” value (gene TNFSF15, DEG direction) was “Down”, the “logFC TNXB” value (gene TNXB, RNA-seq) was -0.7488 and the “change TNXB” value (gene TNXB, DEG direction) was “Down”. The “logFC TPBG” value (gene TPBG, RNA-seq) was -0.9203, the “change TPBG” value (gene TPBG, DEG direction) was “Down” and the “logFC TRNP1” value (gene TRNP1, RNA-seq) was -0.8357. The “change TRNP1” value (gene TRNP1, DEG direction) was “Down”, the “logFC USH1C” value (gene USH1C, RNA-seq) was 0.9916 and the “change USH1C” value (gene USH1C, DEG direction) was “Up”. For the same compound, the “logFC VAMP1” value (gene VAMP1, RNA-seq) was -0.8271, the “change VAMP1” value (gene VAMP1, DEG direction) was “Down” and the “logFC VSIR” value (gene VSIR, RNA-seq) was -0.6272. For the same compound, the “change VSIR” value (gene VSIR, DEG direction) was “Down”, the “logFC XYLT1” value (gene XYLT1, RNA-seq) was 1.184 and the “change XYLT1” value (gene XYLT1, DEG direction) was “Up”. For the same compound, the “logFC ZBED6CL” value (gene ZBED6CL, RNA-seq) was -0.9925, the “change ZBED6CL” value (gene ZBED6CL, DEG direction) was “Down” and the “logFC ZNF365” value (gene ZNF365, RNA-seq) was -1.468. For the same compound, the “change ZNF365” value (gene ZNF365, DEG direction) was “Down”, the “logFC ZRANB3” value (gene ZRANB3, RNA-seq) was 1.008 and the “change ZRANB3” value (gene ZRANB3, DEG direction) was “Up”.
